According to PMC9226124, “Macrocycle-stabilization of its interaction with 14-3-3 increases plasma membrane localization and activity of CFTR” (Nature Communications, 2022):
Several values for one entry are separate records, joined by “and”; a condition that tells them apart may be missing. Equal values may be shown once.

Columns and labels:
14-3-3β/BAD peptide = molecular target: T1, 14-3-3β/BAD peptide (Homo sapiens, UniProt P31946); test: FP assay of 14-3-3 partner protein peptide, BAD; type: binding; conditions: for FP signal: BAD peptide, CY007424 100 μM
T1 construct: His6 (cleaved yes); made in house
T1 sequence (P31946 1-246): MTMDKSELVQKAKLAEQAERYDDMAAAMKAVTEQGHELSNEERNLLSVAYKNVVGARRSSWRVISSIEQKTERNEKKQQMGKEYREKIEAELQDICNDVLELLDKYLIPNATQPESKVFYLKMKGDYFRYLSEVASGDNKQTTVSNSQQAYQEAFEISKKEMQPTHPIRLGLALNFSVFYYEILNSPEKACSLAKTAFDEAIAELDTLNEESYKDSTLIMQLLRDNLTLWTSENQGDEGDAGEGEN
Protocol: The FITC-labeled peptides were dissolved in FP buffer (10 mM HEPES pH 7.4, 150 mM NaCl, 0.1% Tween20, 1 mg/mL BSA) to a final concentration of 100 nM or 10 nM. For the dose-response assays, a 14-3-3β concentration of 10 μM was used while titrating the compounds in a two-times dilution series and, for the other assays, a dilution series of 14-3-3β was made with constant concentration of compound. The dilution series were made in 384 Corning Black Round Bottom well plates and their polarization was measured with a Tecan Infinite F500 plate reader (ex. = 485 nm, em. = 535 nm). The method of fitting of the curves was: “log(agonist) vs. response – Variable slope (four parameters)” from GraphPad Prism. The equation is Y = Bottom + (Top-Bottom)/(1 + 10^((LogEC50-X)*HillSlope)).
Supplementary Figure 2. Stabilization of the interaction between 14-3-3β and a collection of different 14-3-3 partner protein peptides by CY00742 4. […] Background polarization was subtracted from all values, n=3 technical replicates. Source data are provided as a Source Data file.
(1 picture or pasted object on this page, not shown here)

[1] = molecular target: T2, F508del-CFTR in primary CFBE cells (Homo sapiens, UniProt P13569, DEL508-508); test: Ussing chamber assay (short-circuit current); type: cell-based; parameters: short-circuit current after stimulation by forskolin and genistein: unit not given here; conditions: 18 h
T2 construct: endogenous in cells; host or cells: primary CFBE cells, air-liquid interface culture
Protocol: Twelve (12) validated hit compounds from the initial screening and focused validation library were tested for their effect on F508del-CFTR trafficking. Baby hamster kidney (BHK) cells expressing 3HA-tagged F508del-CFTR were treated for 24 h with 10 μM compound. After fixation of the cells, a combination of mouse monoclonal anti-HA antibody and anti-mouse IgG conjugated with FITC was used to detect F508del-CFTR that had trafficked to the plasma membrane as described previously. […] Additionally, a fluorescence imaging plate reader (FLIPR) Membrane Potential (FMP) assay was performed. This assay measures real-time membrane potential changes associated with ion channel activation and ion transporter proteins. F508del-CFTR expressing BHK cells were incubated for 24 h with 20 μM compound before treatment with the potentiator genistein, FMP dye, and activator forskolin. The fluorescence intensity is thus a measure for the function of the CFTR protein in the plasma membrane of these cells. The F508del-CFTR corrector VX-809 (lumacaftor) and the triple combination Trikafta® were used as positive controls in this assay. […] Another cellular assay was performed with the Ussing Chamber, which detects and quantifies transport of ions across epithelial tissue. F508del-CFTR expressing cystic fibrosis epithelial (CFBE) cells were treated for 18 h with 20 μM CY007424. After forskolin and genistein stimulation, the short-circuit current of the cells was measured. […]

T2 sequence (P13569 with tags, fused parts or gaps DEL508-508): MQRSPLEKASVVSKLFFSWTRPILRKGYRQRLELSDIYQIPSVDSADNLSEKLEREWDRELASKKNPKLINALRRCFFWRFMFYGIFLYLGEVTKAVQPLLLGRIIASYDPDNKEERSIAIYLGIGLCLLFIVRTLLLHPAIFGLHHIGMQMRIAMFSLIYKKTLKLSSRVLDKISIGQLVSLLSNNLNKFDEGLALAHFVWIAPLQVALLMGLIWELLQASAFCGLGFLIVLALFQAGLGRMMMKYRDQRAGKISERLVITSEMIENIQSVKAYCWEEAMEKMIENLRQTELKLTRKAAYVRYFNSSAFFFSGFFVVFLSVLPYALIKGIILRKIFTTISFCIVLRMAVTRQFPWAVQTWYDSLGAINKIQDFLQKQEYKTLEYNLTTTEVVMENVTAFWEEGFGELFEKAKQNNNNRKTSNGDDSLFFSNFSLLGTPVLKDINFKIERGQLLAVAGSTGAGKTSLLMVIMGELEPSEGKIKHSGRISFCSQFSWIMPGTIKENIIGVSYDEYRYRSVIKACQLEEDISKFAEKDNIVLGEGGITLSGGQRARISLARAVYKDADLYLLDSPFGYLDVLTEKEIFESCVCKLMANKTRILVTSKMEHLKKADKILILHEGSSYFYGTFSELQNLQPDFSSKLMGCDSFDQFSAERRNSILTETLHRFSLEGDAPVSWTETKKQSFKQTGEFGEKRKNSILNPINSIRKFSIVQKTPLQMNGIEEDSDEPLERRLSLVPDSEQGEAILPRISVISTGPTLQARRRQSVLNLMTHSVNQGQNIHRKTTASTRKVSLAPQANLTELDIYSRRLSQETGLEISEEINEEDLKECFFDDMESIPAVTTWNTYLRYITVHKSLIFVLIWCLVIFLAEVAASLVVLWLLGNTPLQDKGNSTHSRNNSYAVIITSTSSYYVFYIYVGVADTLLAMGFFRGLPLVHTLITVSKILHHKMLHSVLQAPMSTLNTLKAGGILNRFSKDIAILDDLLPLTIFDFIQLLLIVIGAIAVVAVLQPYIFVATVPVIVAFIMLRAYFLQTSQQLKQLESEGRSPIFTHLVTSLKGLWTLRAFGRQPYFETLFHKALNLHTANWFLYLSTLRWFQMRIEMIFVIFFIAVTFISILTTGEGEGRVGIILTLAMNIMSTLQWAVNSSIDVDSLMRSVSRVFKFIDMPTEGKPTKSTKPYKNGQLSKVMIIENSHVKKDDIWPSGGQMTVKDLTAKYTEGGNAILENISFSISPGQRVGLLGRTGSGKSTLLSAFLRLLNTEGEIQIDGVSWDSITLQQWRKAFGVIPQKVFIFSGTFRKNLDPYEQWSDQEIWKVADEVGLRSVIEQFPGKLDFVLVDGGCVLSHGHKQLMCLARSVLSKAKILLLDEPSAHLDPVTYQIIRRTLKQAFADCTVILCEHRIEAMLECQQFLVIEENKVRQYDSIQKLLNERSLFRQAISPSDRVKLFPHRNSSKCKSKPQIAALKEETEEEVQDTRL

N=C(N)NCCCC1NCc2ccccc2Sc2ccccc2CNC(=O)C(Cc2ccc(O)cc2)NC(=O)C(CCCN)NC1=O (centres unmarked) [CY007424] was tested, and the “stabilization of the 14-3-3/BAD peptide complex” value (14-3-3β/BAD peptide; 100 µM compound) was “some stabilization of the complex”, the FP signal (14-3-3β/BAD peptide; 14-3-3β 2.44141e-7 M) was 59.3333 and the FP signal (14-3-3β/BAD peptide; 14-3-3β 4.88281e-7 M) was 76.3333 and 74.3333 and 80.3333. For the same molecule, the FP signal (14-3-3β/BAD peptide; 14-3-3β 9.76563e-7 M) was 77.3333 and 83.3333 and 79.3333, the FP signal (14-3-3β/BAD peptide; 14-3-3β 1.95313e-6 M) was 81.3333 and 79.3333 and 82.3333 and the FP signal (14-3-3β/BAD peptide; 14-3-3β 3.90625e-6 M) was 74.3333 and 75.3333. For the same molecule, the “short-circuit current after stimulation by forskolin and genistein” value ([1]; 20 μM CY07424, 1 μM VX-809, biological replicates) was 1.424 and 1.182 and 1.788 (2×) and 1.697 and 2.091 and the “conductance (short-circuit current) in words” value ([1]; 20 μM, forskolin and genistein stimulation) was “higher conductance than the DMSO control”.
